Data reported in patent publication EP4803080A1, “METHOD FOR TREATING LEUKEMIA” (Shenzhen TargetRx Co., Ltd., priority 2023, dated 2025).

Key:
[1] = test system: accelerated phase (AP) chronic myeloid leukemia (CML); test: Phase I dose escalation and dose expansion clinical trial: efficacy in CML-AP subjects; assay type: in vivo, humans
Source text: This study is a single-arm, open-label, dose-escalation and dose-expansion Phase I clinical trial.
The dose-escalation phase of this trial consists of about 8 dose groups, with oral administration under fasting conditions. Subjects in all dose groups will receive a single dose on Day 1 (D1), followed by pharmacokinetic (PK) and tolerability observations. […] After entering the multiple-dose period, subjects in the first dose group will initially receive twice-daily (BID) dosing (if PK data from the single-dose period are available, the dosing frequency during the multiple-dose period may be adjusted based on the PK data). The dosing frequency for subjects in subsequent dose groups after entering the multiple-dose period will be determined based on available PK and tolerability data. Throughout the trial, dosing frequency for all subjects may be adjusted based on continuously updated safety and PK data.
A continuous reassessment method (CRM) based on the principle of the escalation with overdose control (EWOC) design will be used to recommend the next specific dose for each dose escalation, thereby completing dose escalation and determining the maximum tolerated dose (MTD). If both the investigator and sponsor believe that higher dose groups may offer better efficacy and manageable safety, the EWOC-based CRM method may be used to explore higher doses. All enrolled subjects will receive long-term treatment with the test drug and undergo evaluations for safety, tolerability, and preliminary efficacy.
After obtaining certain research data from the dose-escalation phase, the investigator may comprehensively consider safety, efficacy, and other information to decide whether to enroll additional subjects at the MTD and/or lower dose levels to determine the recommended Phase II dose (RP2D). Two to four suitable dosing regimens will be selected for expansion in the target population (including subjects enrolled at the target dose levels during the escalation phase).
A total of 8 dose groups were established: 10 mg bid, 20 mg bid, 40 mg bid, 80 mg bid, 40 mg qd, 80 mg qd, 160 mg qd, and 240 mg qd.
The dose expansion phase was conducted in the following 3 cohorts: • Cohort 1: Subjects with chronic phase (CP) chronic myeloid leukemia (CML) who had previously received at least ≥2 different TKIs and were T315I-negative. A total of 3 dose groups were established: 40 mg qd, 80 mg qd, and 240 mg qd; • Cohort 2: Subjects with chronic phase (CP) chronic myeloid leukemia (CML) who have previously received ≥1 TKI and were T315I-positive. A total of 2 dose groups were established: 40 mg qd and 240 mg qd; • Cohort 3: Subjects with accelerated phase (AP) chronic myeloid leukemia (CML) who have previously received ≥1 TKI, regardless of T315I positivity. A total of 1 dose group was established: 240 mg qd.

[2] = Phase I clinical trial: pharmacokinetics; assay type: in vivo, humans; conditions: CML patients, oral
Source text: • 1) To preliminarily evaluate the pharmacokinetic characteristics of Compound A after multiple oral administrations; • 2) To preliminarily evaluate the antitumor effects of Compound A.
This study is a single-arm, open-label, dose-escalation and dose-expansion Phase I clinical trial. The trial plans to enroll patients with chronic myeloid leukemia (CML) who have developed resistance or intolerance after prior treatment with BCR-ABL1 tyrosine kinase inhibitor(s) (TKIs).
The dose-escalation phase of this trial consists of about 8 dose groups, with oral administration under fasting conditions. Subjects in all dose groups will receive a single dose on Day 1 (D1), followed by pharmacokinetic (PK) and tolerability observations. If no drug-related adverse events of Grade 3 or higher occur during the single-dose period, the subject will enter the multiple-dose period (i.e., the treatment period) after 3-5 days (for the first dose group, the multiple-dose period begins 5 days after the first dose [i.e., starting on Day 6]; for subsequent dose groups, the interval will be determined based on available tolerability and PK data). […] The dosing frequency for subjects in subsequent dose groups after entering the multiple-dose period will be determined based on available PK and tolerability data. […]

[3] = test system: K562-luc human leukemia cells; test: Pharmacodynamic study in animal model inoculated via the carotid artery with K562-luc cells (brain metastasis model); conditions: 50 mg/kg p.o. qd
Experimental: K562-luc tumor cells were cultured in IMDM medium containing 10% fetal bovine serum and 1500 ng/mL puromycin in an incubator at 37°C with 5% CO2. The medium was replaced every 2 to 3 days. The cells were subcultured when the confluence reaches 80% - 90%. Tumor cells in the logarithmic growth phase were used for in vivo tumor inoculation.
Test animals: NCG mice, 6-8 weeks old, female, all handled according to SOP. The animals were housed in an SPF facility accredited by AAALAC (Association for Assessment and Accreditation of Laboratory Animal Care), in a constant-temperature and constant-humidity laminar flow clean room, using individually ventilated cages (IVC). […]
The mouse was placed supine on a neck surgery board with the upper incisors hooked and both forelimbs abducted and fixed. […] Tumor growth was monitored once weekly using an in vivo imaging system. […]
For routine monitoring, not only tumor growth but also behavioral changes of the animals were observed, including animal movement, food and water consumption (by cage-side observation), body weight changes, whether the eyes/hair were glossy, and any other abnormal effects. Any deaths and/or clinical signs of abnormalities were recorded. […]
Statistical analysis: Statistical analysis between groups was performed using SPSS 16.0 software. Mean and standard error were calculated for all measured parameters according to the experimental design. […]

[4] = CML-AP subjects previously treated with ponatinib, olverembatinib, asciminib, and/or HS-10382, as of June 2, 2024
[5] = CML-AP subjects, all doses, 44 evaluable, as of August 24, 2023
[6] = CML-AP subjects, 42 evaluable, as of June 2, 2024
[7] = CML-AP subjects, as of August 24, 2023
[8] = CML-AP subjects, as of June 2, 2024
[9] = CML-AP, failed or intolerant to third or above generations of TKI therapy
[10] = CML-AP, failed or intolerant to third or above generations of TKI therapy, 28 evaluable
[11] = CML-AP, failed or intolerant to third or above generations of TKI therapy, Kaplan-Meier method
[12] = CML-AP, 10 mg BID, 1 evaluable subject, as of August 24, 2023
[13] = CML-AP, 20 mg BID, 3 evaluable subjects, as of August 24, 2023
[14] = CML-AP, 40 mg BID, 4 evaluable subjects, as of August 24, 2023
[15] = CML-AP, 40 mg QD, 2 evaluable subjects, as of August 24, 2023
[16] = CML-AP, 40 mg/day Total, 5 evaluable subjects, as of August 24, 2023
[17] = CML-AP, 80 mg BID, 0 evaluable subjects, as of August 24, 2023
[18] = CML-AP, 80 mg QD, 4 evaluable subjects, as of August 24, 2023
[19] = CML-AP, 80 mg/day Total, 8 evaluable subjects, as of August 24, 2023
[20] = CML-AP, 160 mg QD, 3 evaluable subjects, as of August 24, 2023
[21] = CML-AP, 160 mg/day Total, 3 evaluable subjects, as of August 24, 2023
[22] = CML-AP, 240 mg QD, 27 evaluable subjects, as of August 24, 2023
[23] = CML-AP, Total, all dose groups, 44 evaluable subjects, as of August 24, 2023

Structure (SMILES): O=C(Nc1ccc(OC(F)(F)Cl)cc1)c1cnc(N2CC[C@@H](F)C2)c(-c2cnccn2)c1 [Compound A, (R)-N-(4-(chlorodifluoromethoxy)phenyl)-6-(3-fluoropyrrolidin-1-yl)-5-(pyrazin-2-yl)nicotinamide]
- 18-month cumulative incidence rate of CCyR [1, 4]: 17%
- 18-month cumulative incidence rate of MCyR [1, 4]: 23%
- CCyR [1, 5]: 18.2%
- MCyR [1, 5]: 34.1%
- MMR [1, 5]: 4.5%
- MaHR ([1]; CML-AP subjects, all doses, 46 evaluable, as of August 24, 2023): 84.8%
- CHR within 3 treatment cycles [1, 6]: 79%
- MaHR within 3 treatment cycles [1, 6]: 83%
- median time to MCyR [1, 7]: 2.76 (0.95, 5.52) months
- median time to MMR [1, 7]: 5.54 (2.79, 8.28) months
- 18-month cumulative incidence of CCyR [1, 8]: 30%
- 18-month cumulative incidence of MCyR [1, 8]: 35%
- 18-month cumulative incidence of MMR [1, 8]: 14%
- median EFS [1, 9]: 8.41 months
- median PFS [1, 9]: not reached
- median duration of MaHR response [1, 9]: not reached
- median time to achieve CCyR [1, 9]: 5.59 (4.16, 6.92) months
- median time to achieve MCyR [1, 9]: 2.69 (2.69, 5.55) months
- CCyR [1, 10]: 14.3%
- MCyR [1, 10]: 25.0%
- MMR [1, 10]: 3.6%
- MaHR [1, 10]: 78.6%
- 12-month EFS rate [1, 11]: 42.5%
- 12-month PFS rate [1, 11]: 79.9%
- CCyR [1, 12]: 0 n (%)
- MCyR [1, 12]: 0 n (%)
- MMR [1, 12]: 0 n (%)
- MaHR [1, 12]: 1 (100) n (%)
- CCyR [1, 13]: 1 (33.3) n (%)
- MCyR [1, 13]: 1 (33.3) n (%)
- MMR [1, 13]: 0 n (%)
- MaHR [1, 13]: 3 (100) n (%)
- CCyR [1, 14]: 0 n (%)
- MCyR [1, 14]: 1 (25.0) n (%)
- MMR [1, 14]: 0 n (%)
- MaHR [1, 14]: 3 (75.0) n (%)
- CCyR [1, 15]: 0 n (%)
- MCyR [1, 15]: 1 (50.0) n (%)
- MMR [1, 15]: 0 n (%)
- MaHR [1, 15]: 1 (50.0) n (%)
- CCyR [1, 16]: 1 (20.0) n (%)
- MCyR [1, 16]: 2 (40.0) n (%)
- MMR [1, 16]: 0 n (%)
- MaHR [1, 16]: 4 (80.0) n (%)
- CCyR [1, 17]: 0 n (%)
- MCyR [1, 17]: 0 n (%)
- MMR [1, 17]: 0 n (%)
- MaHR [1, 17]: 0 n (%)
- CCyR [1, 18]: 0 n (%)
- MCyR [1, 18]: 0 n (%)
- MMR [1, 18]: 0 n (%)
- MaHR [1, 18]: 3 (75.0) n (%)
- CCyR [1, 19]: 0 n (%)
- MCyR [1, 19]: 1 (12.5) n (%)
- MMR [1, 19]: 0 n (%)
- MaHR [1, 19]: 6 (75.0) n (%)
- CCyR [1, 20]: 0 n (%)
- MCyR [1, 20]: 1 (33.3) n (%)
- MMR [1, 20]: 0 n (%)
- MaHR [1, 20]: 3 (100) n (%)
- CCyR [1, 21]: 0 n (%)
- MCyR [1, 21]: 1 (33.3) n (%)
- MMR [1, 21]: 0 n (%)
- MaHR [1, 21]: 3 (100) n (%)
- CCyR [1, 22]: 7 (25.9) n (%)
- MCyR [1, 22]: 11 (40.7) n (%)
- MMR [1, 22]: 2 (7.4) n (%)
- MaHR ([1]; CML-AP, 240 mg QD, 29 evaluable subjects, as of August 24, 2023): 25 (86.2) n (%)
- CCyR [1, 23]: 8 (18.2) n (%)
- MCyR [1, 23]: 15 (34.1) n (%)
- MMR [1, 23]: 2 (4.5) n (%)
- MaHR ([1]; CML-AP, Total, all dose groups, 46 evaluable subjects, as of August 24, 2023): 39 (84.8) n (%)
- exposure versus dose [2]: dose-proportional
- half-life ([2]; human, in vivo, read-out: terminal half-life): > 100 h
- BLI signal intensity of brain tumors (fluorescent signal) ([3]; day 28 after dosing, versus control group, Fig. 8): significantly inhibited
- body weight loss ([3]; during the treatment period): did not show significant body weight loss
